How the values were obtained:
[1] = molecular target: prototypic SARS-CoV-2 spike protein (Severe acute respiratory syndrome coronavirus 2, UniProt P0DTC2, K986P/R682S/R683G/R685G/V987P); assay: biochemical; type: binding
[2] = molecular target: SARS-CoV-2 spike protein (Severe acute respiratory syndrome coronavirus 2, UniProt P0DTC2, K986P/R682S/R683G/R685G/V987P)

Compound	Response at 50 μM (%) [1]	also measured
CCCCCC(=O)Oc1ccc(/N=N/c2ccc(C#N)cc2)cc1 [0054-0201]	23.5%	–
CC(=O)Nc1ccc(Oc2ccc3c(c2)C(=O)N(c2cccc(C)c2)C3=O)cc1 [0584-0466]	21.5%	–
CCCCCCCCOc1ccc(OC(=O)c2ccco2)cc1 [0606-5952]	24.2%	–
CCCCCCCOc1ccc(C2=N/C(=C/c3ccco3)C(=O)O2)cc1 [0782-7025]	12.8	–
COc1cccc(/C=C2/N=C(c3ccc(NC(C)=O)cc3)OC2=O)c1 [2082-0203]	17.9	–
CCN(CC)c1ccc(/C=N/c2ccc(S(N)(=O)=O)cc2)cc1 [2166-0281]	21	–
O=c1/c(=C/c2ccc(-c3cccc([N+](=O)[O-])c3)o2)sc2nc(-c3cccs3)nn12 [5629-0125]	16	–
O=C(COc1ccc(-c2cnc3ccccc3n2)cc1)c1cccs1 [6420-3607]	11.9	–
O=C(Oc1ccc(OC(=O)c2c(Cl)nsc2Cl)cc1)c1c(Cl)nsc1Cl [8002-0592]	14.4	–
N#Cc1ccc(/N=C/c2cc([N+](=O)[O-])ccc2Cl)cc1 [AE-641/08724023]	19	–
CCC(=O)Nc1ccc(C(=O)OCC(=O)c2ccc(Cl)c(Cl)c2)cc1 [AJ-292/41945407]	7.7	–
O=C(COC(=O)c1ccc(Cl)cc1Cl)c1ccc(OC(=O)c2ccco2)cc1 [AK-918/41968204]	5.4	–
CCOc1ccc(C(=O)COC(=O)c2ccc(NC(C)=O)cc2)cc1 [AK-918/42180074]	5.7	–
CCCCOC(=O)c1ccc(OC(=O)c2cccc3ccccc23)cc1 [AN-652/43024838]	5.6	–
COc1ccc(/C=C/c2nn3c(Cc4ccccc4F)nnc3s2)cc1 [AP-501/43286897]	17.8	–
CC(=O)Nc1ccc(-c2cn3cc(Sc4ccccc4)ccc3n2)cc1 [AQ-776/42801545]	19.5	–
Cn1c(CSc2nc3ccccc3s2)nnc1SCC(=O)NCCO [C592-3799]	25.5%	–
COC(=O)c1ccc2c(c1)C(=O)/C(=C/c1ccc(-c3cccc(C(F)(F)F)c3)o1)O2 [C711-0480]	23.4%	–
COc1ccc(-n2nnc3c(SCC(=O)OCc4ccccc4)ncnc32)cc1 [F0682-1220]	9	–

Compound	Response at 50 μM (%) [1]	also measured
NCc1cncc(-c2ccccc2)c1 [F1905-6556]	14.1	–
O=C(CCn1ccc(=O)[nH]c1=O)NCc1cc(-c2ccccc2F)on1 [F2493-3278]	18.5	–
COc1ccc(-c2cc(COC(=O)CC3CCCCC3)no2)cc1 [F2496-0660]	10.1	–
O=C(OCc1cc(-c2ccc(F)cc2F)on1)c1ccc2[nH]cnc2c1 [F2496-3037]	3.6	–
O=C(CSc1ccncc1)OCc1cc(-c2ccccc2F)on1 [F2496-3101]	14	–
O=C(CCn1ccc(=O)[nH]c1=O)OCc1cc(-c2ccco2)on1 [F2496-3133]	21.1%	–
O=C(OCc1cc(-c2cc3ccccc3o2)on1)c1ccc2[nH]cnc2c1 [F2496-3295]	16.2	–
CCCOC(=O)c1ccc(OCC(=O)c2ccc(O)cc2O)cc1 [F3139-1680]	13.9	–
COc1ccccc1-c1cc2c(=O)n(Cc3nc(-c4ccccn4)no3)ccn2n1 [F3382-3571]	8.9	–
CCCCOC(=O)c1ccc(NC(=O)c2cc(=O)c(OC)co2)cc1 [F5449-0108]	15.8	–
O=C(CCn1ccc(=O)[nH]c1=O)N1CC(c2nc(-c3cccc(Cl)c3)no2)C1 [F6064-2602]	22.3%	–
COCCNC(=O)N1CC(c2nc(-c3cccc(Cl)c3)no2)C1 [F6064-2993]	9.8	–
O=C(Cc1noc2ccccc12)N1CC(c2nc(-c3ccc[nH]c3=O)no2)C1 [F6064-7687]	9.3	–
O=S(=O)(NCC#CCOc1cccc(C(F)(F)F)c1)c1cccs1 [F6412-1980]	27.1%	–
O=C(Cc1cccnc1)N1CC(n2cc(COc3ccccc3)nn2)C1 [F6514-4048]	10.5	–
CC(=O)n1ccc2ccc(C(=O)CSc3nnc(-c4cccnc4)n3C)cc21 [K822-0272]	13.8	–
CCCCC/C=C\C/C=C\CCCCCCCC(=O)O [LA, linoleic acid, reference compound]	–	Kd [1]: 34.2 µM
CCCCCCCC/C=C\CCCCCCCC(=O)O [OA, oleic acid, reference compound]	–	Kd [1]: 28.5 µM
COc1cccc(C(=O)COC(=O)c2ccc(O)cc2O)c1 [SPC-1]	46%	–

Compound	Response at 50 μM (%) [1]	also measured
Cc1nc(CSCCC(=O)N2CCc3ccc([N+](=O)[O-])cc32)cs1 [SPC-2]	40.2%	–
Cn1c(SCc2nc(-c3ccccc3Cl)no2)nnc1-c1ccccc1F [SPC-3]	51.8%	–
CN(CCc1cnn(C)c1)C(=O)c1ccc(-c2ccccc2Cl)o1 [SPC-4]	30.4%	–
COc1ccc(-c2noc(CSc3nnc(-c4ccccc4)n3C)n2)cc1 [SPC-5]	46.1%	–
COc1cccc(-c2noc(CCC(=O)Nc3cccnc3)n2)c1 [SPC-6]	35.9%	–
O=C(O)CCCCCC(=O)N1CCc2ccc([N+](=O)[O-])cc21 [SPC-14]	–	particles in the closed state (three RBD down) [2]: about 48%; particles in the open state with one RBD up [2]: 52%
Cn1c(SCc2nc(-c3ccccc3)no2)nnc1-c1ccco1 [STL416744]	30.3%	–
c1ccc(-c2nnc(SCCCSc3nnc(-c4ccccc4)o3)o2)cc1 [T6013936]	17.1	–
Cc1nc(C)c(-c2nnc(SCc3nc(-c4cccs4)oc3C)o2)s1 [T6037875]	18.3	–
COc1ccc(-c2nnc(SCc3nc(-c4ccco4)no3)o2)cc1 [T6080959]	21.2%	–
c1csc(-c2noc(CSc3nnc(NC4CC4)s3)n2)c1 [T6141058]	14.3	–
Cc1ccc(-c2nc(CSc3nnc(-c4ccco4)o3)no2)cc1 [T6363271]	2.9	–
Cc1cc(C(=O)CSc2nnc(-c3nnc(-c4ccccc4)o3)o2)c(C)n1C [T6388553]	18.3	–
CSc1nc(N)n2nc(C(C)(C)C)cc2n1 [compound 6536]	23.3%	–
Cc1nc(C(F)(F)F)ccc1-c1nnc(SCc2ccc(OC(F)(F)F)cc2)o1 [compound 9502]	26.3%	–
CN(CCCO)C(=O)c1coc(COc2cccc(F)c2F)n1 [compound 11547730]	14.9	–
Cc1cccc(-c2noc(CCc3nc(C4CCOC4)no3)n2)c1 (stereo not drawn) [compound 18297954]	16.5	–
COc1cccc(-c2ncc(CNC(=O)CC3NC(=O)NC3=O)s2)c1 (stereo not drawn) [compound 42995570]	16	–

From PMC9924089, “In Silico Discovery of Small Molecule Modulators Targeting the Achilles’ Heel of SARS-CoV-2 Spike Protein” (ACS Central Science, 2023)
